In patent publication US20230190883A1, “STABLE PEPTIDES HAVING RENALASE AGONIST ACTIVITY” (Bessor Pharma, LLC, priority 2020, published 2023):
Marks after values point to notes of the source that are not given here.

What was measured:
[1] = system: carrageenan-induced Paw edema; assay: carrageenan-induced paw edema (CPE) model in mice; format: in vivo, CD-1 mice; details: for activity at 2 hours: 2 hours after carrageenan
From the text: This test is a rapid in vivo model for evaluation of anti-inflammatory efficacy of test articles. The CPE model in mice quantitativdy assesses inhibition of edema enduced by subplantarinjection of carrageenan. […] Carrageenan-induced inflammation invoves extravasation of polymorphonuclear leukocytes from circulation to the site of inflammation. The subsequent release of myeloperoxidase and other cytokines within the interstitial tissues results in plasma exudation into the site of inflammation. The increased paw volume is measured by water displacement. Anti-inflammatory drugs reduce the paw edema.
• 1. Receive (SOP 1910, SOP 1920) and quarantine (SOP 560) 125 CD-1 mice (Charles River Laboratories, male, 5-6 weeks old). • 2. Animals are ear tagged (SOP 810), weighed, and sorted into 9 groups with 10 animals/group and 5 groups of 7 animals/group based upon average body weight. • 3. Prepare 3% carrageenan solution: • 1) Preparation at least 2 weeks in advance of use. • 2) Weigh out 600 mg A-carrageenan into a glass beaker. • 3) Add 20 ml deionized water. • 4) Stir on mild heat until carrageenan fully dissolved. • 5) Cool solution to ambient temperature. • 6) Store at 4-8° C. • 4. Until the day of use the renalase peptides are stored at -20° C. as dry powder. • 5. DAY 0 • a. Prepare test material in sterile saline (vehicle). • b. On the day of dosing, renalase peptides are dissolved. • c. On day prior to administration check carrageenan solution for clarity (no visible evidence of contamination). • 1) Equilibrate carrageenan to ambient temperature. • d. Record mouse weights in laboratory notebook. • e. Measure and record paw initial paw volumes: • 1) Place beaker of water on balance and tare to zero. • 2) Place right hind limb in the beaker of water on the scale with the top of the hock centered in the meniscus of the water. Record read-out on the scale. • 3) The foot must be dried after each measurement as wet feet will change the readout. • 4) Re-tare the scale between measurements to account for decrease in water volume. • f. […]
The test was also conducted to compare the inhibition of inflammation by peptide 10 as compared to the corresponding peptide fragment without the alanine substitution at position 220 (peptide 81).

[2] = system: cisplatin induced kidney injury; assay: cisplatin-induced kidney injury in vivo
From the text: A key measure of this toxicity is a decrease in kidney mass; this is limited when Renalase A (205-240)-OH is given. More dramatic is the effect of peptide on the reduced renal function seen with cisplatin induced renal injury.

acute pancreatitis = assay: experimental acute pancreatitis (AP), mouse model; format: in vivo
From the text: This likely represents inhibition of inflammatory pathways central to AP pathogenesis; a probable target is inflammatory activation (FIG. 5). Since most patients with AP present long after disease onset and later onset responses are most important in determining AP severity, the beneficial effects of peptide 10 should be therapeutically valuable even late in the course of disease. In this context we have shown that RNLS agonists reduce injury when given 2 hrs after the onset of cerulein AP and 12hrs after the induction of arginine AP.

[3] = system: cultured proximal renal tubule cell line; assay: cisplatin-induced injury of cultured kidney cells; format: cell-based
From the text: We have shown that a peptide of the invention [Ala^220]-Ac-Renalase A (205-240)-NH2 eliminated cisplatin-induced injury of cultured kidney cells. […] Data are shown below for such RNLS agonists

[4] = system: renal ischemia reperfusion injury; assay: renal ischemia reperfusion injury, preclinical murine model; format: in vivo
[5] = system: blood from healthy donors; format: cell-based
[6] = system: cerulin-induced severe pancreatitis; assay: cerulin-induced severe pancreatitis model; format: in vivo; details: FIG. 13
cronin 1 = assay: levels of cronin 1, marker for inflammatory cells; details: FIG. 14
COVID-19 mouse model = assay: COVID-19 mouse model, survival; details: FIG. 11
severe viral infection = assay: model of severe viral infection in renalase-deficient mice; details: FIG. 12
[7] = 10 mpk, * = statistical significance
[8] = peptide at 50 ug/ml, 3 hrs incubation, ELISA, p<0.01

C[C@@H]1C[C@H]2[C@@H]3CCC4=CC(=O)C=C[C@]4(C)[C@@]3(F)[C@@H](O)C[C@]2(C)[C@@]1(O)C(=O)CO [Dexamethasone, reference compound]
percent change from control, paw edema, 2 hr after carrageenan [1, 7]: 51.2* percent | percent change from control, paw edema, 4 hr after carrageenan ([1]; 10 mpk): 49.7* percent | percent change from control, paw edema, 10 hr after carrageenan ([1]; 10 mpk): 55.6* percent

COc1ccc2c(c1)c(CC(=O)O)c(C)n2C(=O)c1ccc(Cl)cc1 [Indomethacin, reference compound]
percent change from control, paw edema, 2 hr after carrageenan ([1]; 5 mpk): 79.4* percent | percent change from control, paw edema, 4 hr after carrageenan ([1]; 5 mpk): 60.3* percent | percent change from control, paw edema, 6 hr after carrageenan ([1]; 5 mpk): 42.4* percent | percent change from control, paw edema, 10 hr after carrageenan ([1]; 5 mpk): 21.3%

Renalase A (205-240)-OH [Peptide 81]
percent change from control, paw edema, 2 hr after carrageenan ([1]; 3 mpk): 14.2% | percent change from control, paw edema, 4 hr after carrageenan ([1]; 3 mpk): 1.6% | percent change from control, paw edema, 6 hr after carrageenan ([1]; 3 mpk): −13.1% | percent change from control, paw edema, 10 hr after carrageenan ([1]; 3 mpk): 2.4% | percent change from control, paw edema, 2 hr after carrageenan [1, 7]: 62.6* percent | percent change from control, paw edema, 4 hr after carrageenan ([1]; 10 mpk): 0.5% | percent change from control, paw edema, 6 hr after carrageenan ([1]; 10 mpk): 2.9% | percent change from control, paw edema, 10 hr after carrageenan ([1]; 10 mpk): 13.3% | activity at 2 hours [1]: active | plasma creatinine levels ([2]; 17 days of cisplatin treatment (4-fold increase without agonist), FIG. 4 right panel): reduced this toward the normal range | kidney injury after cisplatin-induced treatment ([2]; FIG. 4): reduces kidney injury | decrease in kidney mass ([2]; cisplatin toxicity, FIG. 4): limited

[Ala^220]-Ac-Renalase A (205-240)-NH2 (KIDVPWAGQYITSNPAIRFVSIDNKKRNIESSEIGP; N-acetyl, C-terminal amide; Based on homo sapiens sequence) [peptide 10]
anti-inflammatory effect on paw edema ([1]; 0.3-30 mg/kg SC 30 min prior to carrageenan, test period of 10 hours, FIGS. 6 and 7): has an anti-inflammatory effect | activity at 2 hours [1]: active | activity and duration of activity compared with peptide 81 ([1]; comparable but different experiments, same protocols): more active and longer active than peptide 81 | activity for longer periods of time ([1]; later than 2 hours): only peptide 10 was active | activity compared with standards ([1]; versus dexamethasone and indomethacin): activity more in line with standards dexamethasone and indomethacin | injury in acute pancreatitis (acute pancreatitis; FIG. 2): reduces injury | earliest AP responses (acinar cell related) (acute pancreatitis; earliest responses, not shown): no effects | levels of active trypsin (acute pancreatitis; later responses (6 hrs), FIG. 2A): tended to reduce | tissue neutrophils (acute pancreatitis; later responses (6 hrs), FIG. 2B): dramatically decrease | mitochondrial injury as determined by OPA-1 and Parkin levels (acute pancreatitis; later responses (6 hrs), FIG. 2C, D): reduced | cisplatin-induced injury of cultured kidney cells [3]: eliminated | injury in a cultured proximal renal tubule cell line ([3]; FIG. 3): reduces injury | renal ischemia reperfusion injury [4]: reduced | inflammatory response to SARS-CoV-2 peptides ([5]; FIG. 5): decreases | SARS-CoV-2-peptide induced increase of IL1-beta [5, 8]: inhibited | SARS-CoV-2-peptide induced increase of IL6 [5, 8]: inhibited | SARS-CoV-2-peptide induced increase of TNF-alpha [5, 8]: inhibited | SARS-CoV-2 peptide S and M induced levels of interferon-gamma ([5]; peptide at 50 ug/ml, SARS-CoV-2 peptides 0.19 nM, 3 hrs incubation, ELISA): dramatically decreased | necrosis [6]: effective in reducing necrosis | levels of cronin 1 (cronin 1): decreases | survival (COVID-19 mouse model): improves survival | protection in severe viral infection (severe viral infection): protects
